Read-outs that look alike come from different tables or passages of the source.

Data set [1] has as its system Human primary keratinocytes (HEKa). The experiment in a line: HEKa cell viability.
The target of data set [2] is T1, TAK1 (Homo sapiens, UniProt O43318).
T1 sequence (O43318 1-606): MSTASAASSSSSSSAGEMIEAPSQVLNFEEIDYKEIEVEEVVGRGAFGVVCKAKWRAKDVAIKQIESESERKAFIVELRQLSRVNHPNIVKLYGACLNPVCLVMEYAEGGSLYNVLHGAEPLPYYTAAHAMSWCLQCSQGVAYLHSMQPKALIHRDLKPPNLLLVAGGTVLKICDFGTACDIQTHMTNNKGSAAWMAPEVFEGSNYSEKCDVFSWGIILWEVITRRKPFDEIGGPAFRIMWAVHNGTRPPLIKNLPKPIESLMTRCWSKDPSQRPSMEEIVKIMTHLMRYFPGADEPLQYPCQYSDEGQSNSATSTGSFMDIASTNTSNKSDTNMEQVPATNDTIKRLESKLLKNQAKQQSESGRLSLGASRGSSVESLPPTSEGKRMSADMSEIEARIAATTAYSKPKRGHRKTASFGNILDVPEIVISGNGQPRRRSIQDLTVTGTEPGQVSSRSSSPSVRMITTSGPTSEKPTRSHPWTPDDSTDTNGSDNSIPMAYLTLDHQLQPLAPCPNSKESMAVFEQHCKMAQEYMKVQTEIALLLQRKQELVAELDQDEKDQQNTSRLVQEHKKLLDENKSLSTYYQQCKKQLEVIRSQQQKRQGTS
Nature of the data set: KiNativ in situ kinome profiling in HEKa, TAK1. The class given is binding. The settings on record: intact HEKa, 1 hr treatment, clinically-achievable concentration.

For data set [3], the system named is sorafenib uptake in HEKa (OATs; SLC22A). The experiment in a line: Inhibition of sorafenib uptake in HEKa by transporter inhibitors. The class given is cell-based, human. Conditions: OAT inhibitors 100 µM, sorafenib 1 µM, 15 min.
Data set [4] deals with sorafenib accumulation in MPEK. The experiment in a line: Inhibition of sorafenib accumulation in MPEK by probenecid. The class given is cell-based, mouse. Conditions: probenecid 100 µM, sorafenib 1 µM, 15 min.
Data set [5] relates to A549, 7860, HepG2 and CHRF288-11 cell lines. The experiment in a line: In vitro antitumor efficacy of sorafenib with or without probenecid. The class given is cell-based, human. Conditions: probenecid 500 µM, sorafenib 0.1 – 100 µM, 72 hours.
Data set [6] relates to HEKa. The experiment in a line: In vitro transport assay: intracellular drug accumulation in HEKa. The settings on record: for intracellular accumulation / transport in HEKa (in words): kinase inhibitors 1 µM, 5 min. The class given is in vitro ADME, human.
The conditions of data set [7]: cited from earlier work.
Data set [8] in a line: Plasma pharmacokinetic study of sorafenib. The class given is in vivo, C57BL6 mice. Conditions: sorafenib 60 mg/kg oral, single agent, 0 to 6 hours.
Data set [9] has as its system hair follicle growth in mice after depilation. The experiment in a line: Wax-depilation hair follicle regrowth study. The class given is in vivo, C57BL6 mice. Conditions: twice daily oral.

As for `COc1cc(O)c2c(c1)/C=C/C[C@H](O)[C@H](O)C(=O)/C=C\C[C@H](C)OC2=O` [(5z)-7-oxozeaenol], in [1] (HEKa, 72 h), the “cell viability / cytotoxicity against HEKa (in words)” value (from here on “cell viability / cytotoxicity”) is “dose-dependently reduced cell viability”.
In the case of `Cc1nc(Nc2ncc(C(=O)Nc3c(C)cccc3Cl)s2)cc(N2CCN(CCO)CC2)n1` [dasatinib], in data set [2], the “affinity for TAK1 in HEKa by in situ kinome profiling (in words)” value is “low affinity”.
On to `C[N+]1(C)CCOC(O)(c2ccc(-c3ccc(C4(O)C[N+](C)(C)CCO4)cc3)cc2)C1.[Br-].[Br-]` (centres unmarked) [hemicholinum-3], for which the “sensitivity of sorafenib uptake to inhibitor” value in data set [3] is recorded as “sensitivity of sorafenib uptake”.
The same measure, in the same setting: then `COc1cc(CC(=O)O)ccc1O` [homovanillic acid], with “sensitivity of sorafenib uptake”.
Regarding `Cc1ccc(NC(=O)c2ccc(CN3CCN(C)CC3)cc2)cc1Nc1nccc(-c2cccnc2)n1` [imatinib], the “cell viability / cytotoxicity” value in data set [1] (HEKa, 72 h) is listed as “not sensitive”.
Turning to `CCCN(CCC)S(=O)(=O)c1ccc(C(=O)O)cc1` [probenecid], the “sensitivity of sorafenib uptake to inhibitor” value in data set [3] was “sensitivity of sorafenib uptake”. For the same compound, in data set [4], the “sensitivity of sorafenib accumulation to probenecid” value was “sensitive to probenecid”. The “influence of probenecid on cytotoxic effects of sorafenib” value in data set [5] was “did not antagonize the cytotoxic effects of sorafenib”.
With `CNC(=O)c1cc(Oc2ccc(NC(=O)Nc3ccc(Cl)c(C(F)(F)F)c3)cc2)cc[n+]1[O-]` [sorafenib N-oxide], the “cell viability / cytotoxicity” value in data set [1] (HEKa, 72 h) is “cytotoxicity against HEKa”. Moreover, the “intracellular accumulation / transport in HEKa (in words)” value in data set [6] was “temperature- and time-dependent transport”.
For the compound `CNC(=O)c1cc(Oc2ccc(NC(=O)Nc3ccc(Cl)c(C(F)(F)F)c3)cc2)ccn1` [sorafenib], the “permeability (in words)” value in [7] is listed as “poorly permeable”. The “area under the plasma concentration-time curve (mean ± SEM)” value in [8] came to 32.5 ± 10.9 µg·h/mL. For the same compound, in data set [6] (HEKa uptake), the “maximum velocity (Vmax) of uptake” value was 20,900 pmol/5min/mg protein. Also, the “intracellular accumulation / transport in HEKa (in words)” value in data set [6] is “highly accumulates”. Also, the Km in [6] (read-out: Michaelis-Menten constant (Km) of uptake, HEKa uptake) was determined as 7 µM. In data set [9] (sorafenib 60 mg/kg), the “hair follicle histology (day 14, H&E)” value is “reduced melanin and a gross disruption in morphology”; the “hair growth one week after depilation” value is listed as “hair growth was delayed”. In addition, the “hair growth and pigmentation at two weeks” value in data set [9] (sorafenib 60 mg/kg or imatinib 100 mg/kg) is “hair was less dense and lacked pigmentation”.
Take `CCN(CC)CCNC(=O)c1c(C)[nH]c(/C=C2\C(=O)Nc3ccc(F)cc32)c1C` [sunitinib]: the “cell viability / cytotoxicity” value in data set [1] is recorded as “induces cytotoxicity against HEKa”. In data set [2], the “affinity for TAK1 in HEKa by in situ kinome profiling (in words)” value is on record as “high affinity”.
